Measured values from US10004701B2, “Methods and compositions for treating infection” (UNIVERSITY OF ROCHESTER, priority 2012, dated 2018).
Structures can show the parent of a compound that is named as a salt. Where two headings read alike, the source gives them in different places.

Legend:
Assay in all cases: AK assay 384-well format, Prestwick library screening
[1] = system: E. faecium; format: cell-based, Enterococcus faecium; details: 50 μM final drug concentration; for fold induction at 50 µM: Enterococcus faecium, 3 h
[2] = system: S. aureus strain USA300-0114; format: cell-based, Staphylococcus aureus; details: 50 μM final drug concentration; for fold induction at 50 µM: Staphylococcus aureus, USA300, 3 h
[3] = system: K. pneumoniae; format: cell-based, Klebsiella pneumoniae; details: 50 μM final drug concentration; for fold induction at 50 µM: Klebsiella pneumoniae, 3 h
[4] = system: A. baumannii strain 98-37-09; format: cell-based, Acinetobacter baumannii; details: 50 μM final drug concentration; for fold induction at 50 µM: Acinetobacter baumannii, 983709, 3 h
[5] = system: P. aeruginosa; format: cell-based, Pseudomonas aeruginosa; details: 50 μM final drug concentration; for fold induction at 50 µM: Pseudomonas aeruginosa, 3 h
[6] = system: E. cloacae; format: cell-based, Enterobacter cloacae; details: 50 μM final drug concentration; for fold induction at 50 µM: Enterobacter cloacae, 3 h
[7] = system: E. coli; format: cell-based, Escherichia coli; details: 50 μM final drug concentration; for fold induction at 50 µM: Escherichia coli, 3 h
[8] = cutoff for positive-scoring molecules 3-fold increase
[9] = planktonic, cutoff for positive 3-fold increase, read-out: AK-based Prestwick Library Screening Results, E. faecium (fold increase in extracellular AK activity)
[10] = planktonic, cutoff for positive 3-fold increase, read-out: AK-based Prestwick Library Screening Results, S. aureus (fold increase in extracellular AK activity)
[11] = planktonic, cutoff for positive 3-fold increase, read-out: AK-based Prestwick Library Screening Results, K. pneumoniae (fold increase in extracellular AK activity)
[12] = planktonic, cutoff for positive 3-fold increase, read-out: AK-based Prestwick Library Screening Results, A. baumannii (fold increase in extracellular AK activity)
[13] = planktonic, cutoff for positive 3-fold increase, read-out: AK-based Prestwick Library Screening Results, P. aeruginosa (fold increase in extracellular AK activity)
[14] = planktonic, cutoff for positive 3-fold increase, read-out: AK-based Prestwick Library Screening Results, E. cloacae (fold increase in extracellular AK activity)
[15] = planktonic, cutoff for positive 3-fold increase, read-out: AK-based Prestwick Library Screening Results, E. coli (fold increase in extracellular AK activity)

Compound: C[C@]12N[C@H](Cc3ccccc31)c1ccccc12 [Dizocilpine maleate]
- fold induction at 50 µM ([1]; 384-well format, […], read-out: AK-based Prestwick Library Screening Results, E. faecium (increase in extracellular AK activity)): 0.9
- fold induction at 50 µM ([2]; 384-well format, […], read-out: AK-based Prestwick Library Screening Results, S. aureus (increase in extracellular AK activity)): 0.7
- fold induction at 50 µM ([3]; 384-well format, […], read-out: AK-based Prestwick Library Screening Results, K. pneumoniae (increase in extracellular AK activity)): 0.7
- fold induction at 50 µM ([4]; 384-well format, […], read-out: AK-based Prestwick Library Screening Results, A. baumannii (increase in extracellular AK activity)): 0.8
- fold induction at 50 µM ([5]; 384-well format, […], read-out: AK-based Prestwick Library Screening Results, P. aeruginosa (increase in extracellular AK activity)): 0.9
- fold induction at 50 µM ([6]; 384-well format, […], read-out: AK-based Prestwick Library Screening Results, E. cloacae (increase in extracellular AK activity)): 1
- fold induction at 50 µM ([7]; 384-well format, […], read-out: AK-based Prestwick Library Screening Results, E. coli (increase in extracellular AK activity)): 0.9

Compound: Clc1ccc(Cn2c(CN3CCCC3)nc3ccccc32)cc1 [Clemizole hydrochloride]
- fold induction at 50 µM ([1]; planktonic E. faecium, 384-well, cutoff for positive-scoring molecules 3-fold increase, read-out: AK-based Prestwick Library Screening Results: E. faecium (increase in extracellular AK activity)): 1.2
- fold induction at 50 µM ([2]; planktonic S. aureus, 384-well, cutoff for positive-scoring molecules 3-fold increase, read-out: AK-based Prestwick Library Screening Results: S. aureus (increase in extracellular AK activity)): 1.6
- fold induction at 50 µM ([3]; planktonic K. pneumoniae, 384-well, cutoff for positive-scoring molecules 3-fold increase, read-out: AK-based Prestwick Library Screening Results: K. pneumoniae (increase in extracellular AK activity)): 1
- fold induction at 50 µM ([4]; planktonic A. baumannii, 384-well, cutoff for positive-scoring molecules 3-fold increase, read-out: AK-based Prestwick Library Screening Results: A. baumannii (increase in extracellular AK activity)): 1.6
- fold induction at 50 µM ([5]; planktonic P. aeruginosa, 384-well, cutoff for positive-scoring molecules 3-fold increase, read-out: AK-based Prestwick Library Screening Results: P. aeruginosa (increase in extracellular AK activity)): 1.2
- fold induction at 50 µM ([6]; planktonic E. cloacae, 384-well, cutoff for positive-scoring molecules 3-fold increase, read-out: AK-based Prestwick Library Screening Results: E. cloacae (increase in extracellular AK activity)): 1.4
- fold induction at 50 µM ([7]; planktonic E. coli, 384-well, cutoff for positive-scoring molecules 3-fold increase, read-out: AK-based Prestwick Library Screening Results: E. coli (increase in extracellular AK activity)): 1.2

Compound: Nc1ncn([C@@H]2O[C@H](CO)[C@@H](O)[C@H]2O)c(=O)n1 [Azacytidine-5]
- AK-based Prestwick Library Screening Results, E. faecium (fold increase in extracellular AK activity) [1, 8]: 1.0
- AK-based Prestwick Library Screening Results, S. aureus (fold increase in extracellular AK activity) [2, 8]: 1.2
- AK-based Prestwick Library Screening Results, K. pneumoniae (fold increase in extracellular AK activity) [3, 8]: 0.9
- AK-based Prestwick Library Screening Results, A. baumannii (fold increase in extracellular AK activity) [4, 8]: 1.4
- AK-based Prestwick Library Screening Results, P. aeruginosa (fold increase in extracellular AK activity) [5, 8]: 1.2
- AK-based Prestwick Library Screening Results, E. cloacae (fold increase in extracellular AK activity) [6, 8]: 1.5
- AK-based Prestwick Library Screening Results, E. coli (fold increase in extracellular AK activity) [7, 8]: 2.2

Compound: CCn1cc(C(=O)O)c(=O)c2cnc(N3CCNCC3)nc21 [Pipemidic acid]
- fold induction at 50 µM ([1]; planktonic, […], read-out: AK-based Prestwick Library Screening Results, E. faecium (fold increase in extracellular AK activity)): 1.1
- fold induction at 50 µM ([2]; planktonic, […], read-out: AK-based Prestwick Library Screening Results, S. aureus (fold increase in extracellular AK activity)): 0.7
- fold induction at 50 µM ([3]; planktonic, […], read-out: AK-based Prestwick Library Screening Results, K. pneumoniae (fold increase in extracellular AK activity)): 1.7
- fold induction at 50 µM ([4]; planktonic, […], read-out: AK-based Prestwick Library Screening Results, A. baumannii (fold increase in extracellular AK activity)): 0.9
- fold induction at 50 µM ([5]; planktonic, […], read-out: AK-based Prestwick Library Screening Results, P. aeruginosa (fold increase in extracellular AK activity)): 0.9
- fold induction at 50 µM ([6]; planktonic, […], read-out: AK-based Prestwick Library Screening Results, E. cloacae (fold increase in extracellular AK activity)): 1
- fold induction at 50 µM ([7]; planktonic, […], read-out: AK-based Prestwick Library Screening Results, E. coli (fold increase in extracellular AK activity)): 14.7

Compound: NC12CC3CC(CC(C3)C1)C2.NC12CC3CC(CC(C3)C1)C2.O=C(O)/C=C/C(=O)O [Adamantamine fumarate]
- AK-based Prestwick Library Screening Results: E. faecium (increase in extracellular AK activity) ([1]; planktonic E. faecium, 384-well, cutoff for positive-scoring molecules 3-fold increase): 0.9
- AK-based Prestwick Library Screening Results: S. aureus (increase in extracellular AK activity) ([2]; planktonic S. aureus, 384-well, cutoff for positive-scoring molecules 3-fold increase): 0.4
- AK-based Prestwick Library Screening Results: K. pneumoniae (increase in extracellular AK activity) ([3]; planktonic K. pneumoniae, 384-well, cutoff for positive-scoring molecules 3-fold increase): 0.5
- AK-based Prestwick Library Screening Results: A. baumannii (increase in extracellular AK activity) ([4]; planktonic A. baumannii, 384-well, cutoff for positive-scoring molecules 3-fold increase): 0.5
- AK-based Prestwick Library Screening Results: P. aeruginosa (increase in extracellular AK activity) ([5]; planktonic P. aeruginosa, 384-well, cutoff for positive-scoring molecules 3-fold increase): 0.4
- AK-based Prestwick Library Screening Results: E. cloacae (increase in extracellular AK activity) ([6]; planktonic E. cloacae, 384-well, cutoff for positive-scoring molecules 3-fold increase): 0.4
- AK-based Prestwick Library Screening Results: E. coli (increase in extracellular AK activity) ([7]; planktonic E. coli, 384-well, cutoff for positive-scoring molecules 3-fold increase): 0.5

Compound: Fc1ccc(C(OCCN2CCN(CCCc3ccccc3)CC2)c2ccc(F)cc2)cc1 [GBR 12909 dihydrochloride]
- fold induction at 50 µM [1, 9]: 1.3
- fold induction at 50 µM [2, 10]: 1.5
- fold induction at 50 µM [3, 11]: 1
- fold induction at 50 µM [4, 12]: 2.2
- fold induction at 50 µM [5, 13]: 1.2
- fold induction at 50 µM [6, 14]: 1.5
- fold induction at 50 µM [7, 15]: 1.4

Compound: O=c1[nH]c(=O)n([C@H]2C[C@H](O)[C@@H](CO)O2)cc1I [Idoxuridine]
- fold induction at 50 µM ([1]; 384-well format, cutoff for positive-scoring molecules 3-fold increase, read-out: AK-based Prestwick Library Screening Results, E. faecium (increase in extracellular AK activity)): 1
- fold induction at 50 µM ([2]; 384-well format, cutoff for positive-scoring molecules 3-fold increase, read-out: AK-based Prestwick Library Screening Results, S. aureus (increase in extracellular AK activity)): 0.7
- fold induction at 50 µM ([3]; 384-well format, cutoff for positive-scoring molecules 3-fold increase, read-out: AK-based Prestwick Library Screening Results, K. pneumoniae (increase in extracellular AK activity)): 0.6
- fold induction at 50 µM ([4]; 384-well format, cutoff for positive-scoring molecules 3-fold increase, read-out: AK-based Prestwick Library Screening Results, A. baumannii (increase in extracellular AK activity)): 0.7
- fold induction at 50 µM ([5]; 384-well format, cutoff for positive-scoring molecules 3-fold increase, read-out: AK-based Prestwick Library Screening Results, P. aeruginosa (increase in extracellular AK activity)): 0.6
- fold induction at 50 µM ([6]; 384-well format, cutoff for positive-scoring molecules 3-fold increase, read-out: AK-based Prestwick Library Screening Results, E. cloacae (increase in extracellular AK activity)): 0.8
- fold induction at 50 µM ([7]; 384-well format, cutoff for positive-scoring molecules 3-fold increase, read-out: AK-based Prestwick Library Screening Results, E. coli (increase in extracellular AK activity)): 0.7

Compound: Cc1c2ccncc2c(C)c2c1[nH]c1ccccc12 [Ellipticine]
- fold induction at 50 µM [1, 9]: 1.3
- fold induction at 50 µM [2, 10]: 0.8
- fold induction at 50 µM [3, 11]: 1
- fold induction at 50 µM [4, 12]: 4.1
- fold induction at 50 µM [5, 13]: 1.2
- fold induction at 50 µM [6, 14]: 1.8
- fold induction at 50 µM [7, 15]: 1.3

Compound: C#CCN(C)CCCOc1ccc(Cl)cc1Cl [Clorgyline hydrochloride]
- fold induction at 50 µM ([1]; planktonic E. faecium, cutoff for positive-scoring molecules 3-fold increase, read-out: AK-based Prestwick Library Screening Results, E. faecium (increase in extracellular AK activity)): 0.7
- fold induction at 50 µM ([2]; planktonic S. aureus, cutoff for positive-scoring molecules 3-fold increase, read-out: AK-based Prestwick Library Screening Results, S. aureus (increase in extracellular AK activity)): 0.5
- fold induction at 50 µM ([3]; planktonic K. pneumoniae, cutoff for positive-scoring molecules 3-fold increase, read-out: AK-based Prestwick Library Screening Results, K. pneumoniae (increase in extracellular AK activity)): 0.5
- fold induction at 50 µM ([4]; planktonic A. baumannii, cutoff for positive-scoring molecules 3-fold increase, read-out: AK-based Prestwick Library Screening Results, A. baumannii (increase in extracellular AK activity)): 0.6
- fold induction at 50 µM ([5]; planktonic P. aeruginosa, cutoff for positive-scoring molecules 3-fold increase, read-out: AK-based Prestwick Library Screening Results, P. aeruginosa (increase in extracellular AK activity)): 0.7
- fold induction at 50 µM ([6]; planktonic E. cloacae, cutoff for positive-scoring molecules 3-fold increase, read-out: AK-based Prestwick Library Screening Results, E. cloacae (increase in extracellular AK activity)): 0.8
- fold induction at 50 µM ([7]; planktonic E. coli, cutoff for positive-scoring molecules 3-fold increase, read-out: AK-based Prestwick Library Screening Results, E. coli (increase in extracellular AK activity)): 0.7
